According to US20260374739A1, “SMALL MOLECULAR WEIGHT CHEMICAL COMPOUND TO ANTAGONIZE EPH-EPHRIN TETRAMERIZATION AND INHIBIT BIDIRECTIONAL SIGNALING” (THE BOARD OF REGENTS OF THE UNIVERSITY OF TEXAS SYSTEM, priority 2022, published 2026):
“And” between values parts separate entries of the source, which are not always exact repeats. Equal entries are not always repeated. “Also recorded” adds a separate entry of the source. Where two headings read alike, the source gives them in different places. Marks after values point to notes of the source that are not given here.

Assays:
EphrinB2-EphB2 = molecular target: T1, EphrinB2-EphB2 (Homo sapiens, UniProt P29323); assay: Octet 80 sec association/500 sec dissociation, immobilized human EphrinB2-Fc binding to soluble human EphB2-His; settings: for EphB2 Inhibition Percent, Inhibition of Association ONLY: at 3.2 μM and 80 seconds; for EphB2 Inhibition Percent, Inhibition of Association ONLY / EphB2 Inhibition Percent, Inhibition of Association-Dissociation: immobilized human EphrinB2, 25 nM soluble human EphB2; for EphB2 Inhibition Percent, Inhibition of Association-Dissociation: at 3.2 μM and 580 seconds; for inhibition at 3.2 µM: EphB2, 25 nM EphB2, 3.2 μM compound, A20-I as max control, 0* = less than 0, no inhibition
T1 construct: soluble human EphB1-His, EphB2-His, and EphB4-His ectodomains; commercially available human EphrinB1-Fc (EB1), EphrinB2-Fc (EB2), and EphrinB3-Fc (EB3) ectodomain proteins; purchased
T1 sequence (P29323 19-543 limits assumed): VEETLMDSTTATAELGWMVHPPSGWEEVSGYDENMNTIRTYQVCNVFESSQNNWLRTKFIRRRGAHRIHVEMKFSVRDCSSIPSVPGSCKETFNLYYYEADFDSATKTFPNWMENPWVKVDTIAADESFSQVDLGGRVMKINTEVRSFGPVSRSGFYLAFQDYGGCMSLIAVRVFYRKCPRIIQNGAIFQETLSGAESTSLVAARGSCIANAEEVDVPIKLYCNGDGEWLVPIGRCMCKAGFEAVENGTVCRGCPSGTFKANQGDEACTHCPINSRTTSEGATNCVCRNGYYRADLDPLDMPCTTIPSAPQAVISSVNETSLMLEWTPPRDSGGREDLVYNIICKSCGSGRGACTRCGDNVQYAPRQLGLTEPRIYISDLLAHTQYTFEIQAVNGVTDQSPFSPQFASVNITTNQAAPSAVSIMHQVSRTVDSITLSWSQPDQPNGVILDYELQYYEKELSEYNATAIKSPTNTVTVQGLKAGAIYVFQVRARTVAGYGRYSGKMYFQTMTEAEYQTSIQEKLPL
Summary of the method: (§1)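 EphrinB2-Fc captured on AHC biosensors, then soluble His-tagged EphB ectodomain (25 nM for % inhibition runs) associated 80 s and dissociated 500 s in PBS, 0.05% Tween-20, 1% DMSO ± compound. Compounds tested at 0.1–3.2 μM with a 10 μM max standard; IC50 from AUC of full traces or at 75 s and 135 s.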

EphrinB2-EphB4 = molecular target: T2, EphrinB2-EphB4 (Homo sapiens, UniProt P54760); assay: Octet 80 sec association/500 sec dissociation, immobilized human EphrinB2-Fc binding to soluble human EphB4-His; settings: for selectivity among EphrinB2-EphB1/B2/B4: 3.2 μM; for EphB4 Inhibition Percent, Inhibition of Association ONLY: at 3.2 μM and 80 seconds; for EphB4 Inhibition Percent, Inhibition of Association ONLY / EphB4 Inhibition Percent, Inhibition of Association-Dissociation: immobilized human EphrinB2, 25 nM soluble human EphB4; for EphB4 Inhibition Percent, Inhibition of Association-Dissociation: at 3.2 μM and 580 seconds; for inhibition at 3.2 µM: EphB4, 25 nM EphB4, 3.2 μM compound, A20-I as max control, 0* = less than 0, no inhibition
T2 construct: soluble human EphB1-His, EphB2-His, and EphB4-His ectodomains; commercially available human EphrinB1-Fc (EB1), EphrinB2-Fc (EB2), and EphrinB3-Fc (EB3) ectodomain proteins; purchased
T2 sequence (P54760 16-539 limits assumed): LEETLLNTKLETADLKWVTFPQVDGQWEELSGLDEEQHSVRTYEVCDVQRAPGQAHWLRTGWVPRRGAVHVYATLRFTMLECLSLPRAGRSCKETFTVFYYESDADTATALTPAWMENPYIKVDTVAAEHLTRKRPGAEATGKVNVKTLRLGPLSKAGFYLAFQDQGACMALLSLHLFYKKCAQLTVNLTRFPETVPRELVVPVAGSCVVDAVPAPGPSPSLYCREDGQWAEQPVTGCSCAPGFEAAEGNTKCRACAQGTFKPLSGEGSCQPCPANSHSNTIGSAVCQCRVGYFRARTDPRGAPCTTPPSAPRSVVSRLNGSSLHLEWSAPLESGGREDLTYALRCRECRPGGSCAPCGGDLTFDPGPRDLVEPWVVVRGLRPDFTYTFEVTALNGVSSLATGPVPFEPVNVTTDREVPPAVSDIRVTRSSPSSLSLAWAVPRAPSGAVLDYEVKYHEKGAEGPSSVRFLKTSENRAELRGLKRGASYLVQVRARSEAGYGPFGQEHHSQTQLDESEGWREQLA
Summary of the method: as §1

[1] = read-out: % Inhibition: Association + Dissociation (160 sec)
[2] = read-out: % Inhibition: Association ONLY (80 sec)

Oc1ccc(CN2CCN(c3ccc(Br)cc3)CC2)c2cccnc12 [Compound 26, 5-((4-(4-bromophenyl)piperazin-1-yl)methyl)quinolin-8-ol]
EphB2 Inhibition Percent, Inhibition of Association ONLY (EphrinB2-EphB2): 35.9% | EphB2 Inhibition Percent, Inhibition of Association-Dissociation (EphrinB2-EphB2): 60.1% | selectivity among EphrinB2-EphB1/B2/B4 (EphrinB2-EphB4; listed as QPB4): ability to selectively inhibit EphrinB2-EphB2 and EphrinB2-EphB1 interactions, while sparing the EphrinB2-EphB4 interaction; also recorded: less action towards EphB4 but high specificity for EphB1 and EphB2 | EphB4 Inhibition Percent, Inhibition of Association ONLY (EphrinB2-EphB4): 0*% | EphB4 Inhibition Percent, Inhibition of Association-Dissociation (EphrinB2-EphB4): 0*%

Oc1ccc(CN2CCN(Cc3ccccc3)CC2)c2cccnc12 [Compound 41, 5-((4-benzylpiperazin-1-yl)methyl)quinolin-8-ol]
inhibition at 3.2 µM (EphrinB2-EphB2; [1]): 25.3% | inhibition at 3.2 µM (EphrinB2-EphB2; [2]): 9.1% | selectivity among EphrinB2-EphB1/B2/B4 (EphrinB2-EphB4; listed as QPBN): more selective for EphB1 | inhibition at 3.2 µM (EphrinB2-EphB4; [1]): 2.6% | inhibition at 3.2 µM (EphrinB2-EphB4; [2]): 0%

Oc1c(CN2CCCCC2)cc(Cl)c2cccnc12 [Compound 76, 5-chloro-7-(piperidin-1-ylmethyl)quinolin-8-ol, reference compound]
EphB2 Inhibition Percent, Inhibition of Association ONLY (EphrinB2-EphB2): 59.7% and 46.7% | EphB2 Inhibition Percent, Inhibition of Association-Dissociation (EphrinB2-EphB2): 77.8% and 71.3% | EphB4 Inhibition Percent, Inhibition of Association ONLY (EphrinB2-EphB4): 17.9% and 11.6% | EphB4 Inhibition Percent, Inhibition of Association-Dissociation (EphrinB2-EphB4): 34.5% and 29.6%

COc1ccccc1N1CCN(Cc2cc(Br)c(O)c3ncccc23)CC1 [Compound 70, 7-bromo-5-((4-(2-methoxyphenyl)piperazin-1-yl)methyl)quinolin-8-ol]
inhibition at 3.2 µM (EphrinB2-EphB2; [1]): 73% | inhibition at 3.2 µM (EphrinB2-EphB2; [2]): 53.4% | inhibition at 3.2 µM (EphrinB2-EphB4; [1]): 36.3% | inhibition at 3.2 µM (EphrinB2-EphB4; [2]): 15.1%

Oc1c(Br)cc(CN2CCN(c3ccc(Br)cc3)CC2)c2cccnc12 [Compound 30, 7-bromo-5-((4-(4-bromophenyl)piperazin-1-ium-1-yl)methyl)-8-hydroxyquinolin-1-ium chloride]
EphB2 Inhibition Percent, Inhibition of Association ONLY (EphrinB2-EphB2): 57.7% and 62.5% | EphB2 Inhibition Percent, Inhibition of Association-Dissociation (EphrinB2-EphB2): 72.9% and 78.7% | EphB4 Inhibition Percent, Inhibition of Association ONLY (EphrinB2-EphB4): 16.6% and 12.5% | EphB4 Inhibition Percent, Inhibition of Association-Dissociation (EphrinB2-EphB4): 29.3% and 36.4%

Oc1c(Br)cc(CN2CCN(Cc3ccc(Br)cc3)CC2)c2cccnc12 [Compound 44, 7-bromo-5-((4-(4-bromobenzyl)piperazin-1-yl)methyl)quinolin-8-ol]
inhibition at 3.2 µM (EphrinB2-EphB2; [1]): 77.1% | inhibition at 3.2 µM (EphrinB2-EphB2; [2]): 62.1% | inhibition at 3.2 µM (EphrinB2-EphB4; [1]): 28.3% | inhibition at 3.2 µM (EphrinB2-EphB4; [2]): 4.9%

Oc1ccc(CN2CCN(c3ccc(Br)cn3)CC2)c2cccnc12 [Compound 33, 5-((4-(5-bromopyridin-2-yl)piperazin-1-yl)methyl)quinolin-8-ol]
inhibition at 3.2 µM (EphrinB2-EphB2; [1]): 81.6% | inhibition at 3.2 µM (EphrinB2-EphB2; [2]): 69.4% | inhibition at 3.2 µM (EphrinB2-EphB4; [1]): 36.9% | inhibition at 3.2 µM (EphrinB2-EphB4; [2]): 20.9%

COc1ccccc1N1CCN(Cc2cc(I)c(O)c3ncccc23)CC1 [Compound 71, 7-iodo-5-((4-(2-methoxyphenyl)piperazin-1-yl)methyl)quinolin-8-ol]
inhibition of EphrinB2-EphB interactions (EphrinB2-EphB2; 3.2 μM, EphB1, EphB2 and EphB4): activity similar to A20-I max control | inhibition at 3.2 µM (EphrinB2-EphB2; [1]): 73.2% | inhibition at 3.2 µM (EphrinB2-EphB2; [2]): 58.7% | inhibition at 3.2 µM (EphrinB2-EphB4; [1]): 35.6% | inhibition at 3.2 µM (EphrinB2-EphB4; [2]): 17.5%
